Assay results from US20190343908A1, “Therapeutic Combination for the Treatment of Cancer” (Nerium Biotechnology Inc., priority 2011, published 2019).

Key:
[1] = tested on: LNCaP prostate cancer cell line; assay: Crystal Violet viability assay, LNCaP; type: cell-based, human; conditions: for ABSORBANCE: LNCaP, 0.1 μg/mL cisplatin
Source text: (§1) Three different viability assays were chosen to complement each other and yielded results dependent on concentration and cell line: the Methyl Tetrazolium dye assay, the Sulforhodamine B fluorescent dye assay, and the Crystal Violet dye assay.
(§2) The Sulforhodamine B and Crystal Violet assays provide information about protein and were used to complement the Methyl-Tetrazolium dye assay. […] It is used for the quantification of cellular proteins of cultured cells. The assay using Crystal Violet, a dye that binds electrostatically to proteins and stains DNA, provides a reliable, simple assay for measuring viability of cells.
(§3) The Methyl Tetrazolium, Sulforhodamine B, and Crystal Violet assays were used to assess cell viabilities. The incubation times were 24 hours, 48 hours, and 72 hours. The Nerium oleander extract Anvirzel™ (a hot water extract of oleander obtained from Salud Integral, Honduras) was tested in concentrations ranging from 0.01 ng/mL to 10 ng/mL.
(§4) Cells were detached by trypsinization (Trypsin-0.25% EDTA, Invitrogen, 25200-072) during the logarithmic phase of culture growth and plated in 96-well plates (18.000 cells/well) (Corning, Costar 359) in a final volume of 200 μl of medium per well. […] The absorbance was measured after 24 hours, 48 hours, and 72 hours of incubation.
For the Crystal Violet assay, the medium was removed from the 96-well plates, the plates rinsed with PBS (Sigma, P3813) and then the cells were […] by the addition of 10% formalin (MERCK, 1.04003.2500) for 20 minutes at RT. Formalin was removed and 0.25% aqueous crystal violet (Sigma, HT901), dissolved in water, was added for 10 minutes at RT. Unbound Crystal Violet was rinsed by washing with water and finally 33% acetic acid was added to dissolve the dye.
(§5) The optical density of each plate was measured on a μQuant spectrophotometer and the data were analyzed with Gen5 software (μQuant Biomolecular Spectrophotometer MQX200 and Gen5™ Microplate Data Collection & Analysis software, BioTek® Instruments. Inc, April 2008). Absorbance was measured at 570 nm for all assays and a second wavelength was measured in order to subtract noise. For the Methyl-Tetrazolium assay this second wavelength was 630 nm and for the Sulforhodamine B and Crystal Violet assays it was 690 nm.

[2] = tested on: LNCaP prostate cancer cell line; assay: Sulforhodamine B viability assay, LNCaP; type: cell-based, human; conditions: for ABSORBANCE: LNCaP, 0.1 μg/mL cisplatin
Source text: as §1, §2, §3, §4
(§6) For the Sulforhodamine B assay, 96-well plates were fixed by 10% trichloroacetic acid (Fluka, 91228) and were incubated at 4° C. for 1 hour. Afterwards, plates were rinsed with water and cells were stained with 0.4% Sulforhodamine B (Sigma, 341738), dissolved in 1% acetic acid (Carlo Ebra, 401422) for 15 minutes at room temperature (RT). The unbound stain was washed twice with 1% acetic acid. Finally, 10 mM Tris Buffer pH 10.5 (Sigma, T6791) was added to dissolve the dye.
as §5

[3] = tested on: MDA-MB 231 (human breast cancer); assay: Sulforhodamine B viability assay, MDA-MB 231; type: cell-based; conditions: for SRB 24 h / SRB 48 h / SRB 72 h: Run 3 average
Source text: as §1, §2, §3, §4, §6, §5

[4] = LNCaP Run 3, 24 h, 0.1 μg/ml CDDP
[5] = LNCaP Run 3, 24 h, 1 μg/ml CDDP
[6] = LNCaP Run 3, 24 h, 10 μg/ml CDDP
[7] = LNCaP Run 3, 24 h, 100 μg/ml CDDP
[8] = LNCaP Run 3, 48 h, 0.1 μg/ml CDDP
[9] = LNCaP Run 3, 48 h, 1 μg/ml CDDP
[10] = LNCaP Run 3, 48 h, 10 μg/ml CDDP
[11] = LNCaP Run 3, 48 h, 100 μg/ml CDDP
[12] = LNCaP Run 3, 72 h, 0.1 μg/ml CDDP
[13] = LNCaP Run 3, 72 h, 1 μg/ml CDDP
[14] = LNCaP Run 3, 72 h, 10 μg/ml CDDP
[15] = LNCaP Run 3, 72 h, 100 μg/ml CDDP

N.N.[Cl][Pt][Cl] [cisplatin]
CVE Average [1, 4]: 0.425
CVE Average [1, 5]: 0.152
CVE Average [1, 6]: 0.171
CVE Average [1, 7]: 0.133
CVE Average [1, 8]: 0.387
CVE Average [1, 9]: 0.24
CVE Average [1, 10]: 0.267
CVE Average [1, 11]: 0.3
CVE Average [1, 12]: 0.619
CVE Average [1, 13]: 0.312
CVE Average [1, 14]: 0.303
CVE Average [1, 15]: 0.289
ABSORBANCE ([1]; 48 h): 0.408
ABSORBANCE ([1]; 72 h): 0.448
Average CVE 24 h ([1]; Run 1, 0.1 μg/ml CDDP): 0.418
Average CVE 48 h ([1]; Run 1, 0.1 μg/ml CDDP): 0.541
Average CVE 72 h ([1]; Run 1, 0.1 μg/ml CDDP): 0.684
Average CVE 24 h ([1]; Run 1, 1 μg/ml CDDP): 0.327
Average CVE 48 h ([1]; Run 1, 1 μg/ml CDDP): 0.252
Average CVE 72 h ([1]; Run 1, 1 μg/ml CDDP): 0.558
Average CVE 24 h ([1]; Run 1, 10 μg/ml CDDP): 0.289
Average CVE 48 h ([1]; Run 1, 10 μg/ml CDDP): 0.467
Average CVE 72 h ([1]; Run 1, 10 μg/ml CDDP): 0.423
Average CVE 24 h ([1]; Run 1, 100 μg/ml CDDP): 0.359
Average CVE 48 h ([1]; Run 1, 100 μg/ml CDDP): 0.306
Average CVE 72 h ([1]; Run 1, 100 μg/ml CDDP): 0.398
Average CVE 24 h ([1]; Run 2, 0.1 μg/ml CDDP): 0.463
Average CVE 48 h ([1]; Run 2, 0.1 μg/ml CDDP): 0.408
Average CVE 72 h ([1]; Run 2, 0.1 μg/ml CDDP): 0.448
Average CVE 24 h ([1]; Run 2, 1 μg/ml CDDP): 0.227
Average CVE 48 h ([1]; Run 2, 1 μg/ml CDDP): 0.29
Average CVE 72 h ([1]; Run 2, 1 μg/ml CDDP): 0.522
Average CVE 24 h ([1]; Run 2, 10 μg/ml CDDP): 0.278
Average CVE 48 h ([1]; Run 2, 10 μg/ml CDDP): 0.207
Average CVE 72 h ([1]; Run 2, 10 μg/ml CDDP): 0.299
Average CVE 24 h ([1]; Run 2, 100 μg/ml CDDP): 0.276
Average CVE 48 h ([1]; Run 2, 100 μg/ml CDDP): 0.237
Average CVE 72 h ([1]; Run 2, 100 μg/ml CDDP): 0.214
SRB Average [2, 4]: 1.975
SRB Average [2, 5]: 1.541
SRB Average [2, 6]: 1.242
SRB Average [2, 7]: 1.2
SRB Average [2, 8]: 1.761
SRB Average [2, 9]: 1.56
SRB Average [2, 10]: 1.46
SRB Average [2, 11]: 1.284
SRB Average [2, 12]: 2.009
SRB Average [2, 13]: 1.584
SRB Average [2, 14]: 1.561
SRB Average [2, 15]: 1.421
ABSORBANCE ([2]; 48 h): 1.681
ABSORBANCE ([2]; 72 h): 1.766
Average SRB 24 h ([2]; Run 1, 0.1 μg/ml CDDP): 1.611
Average SRB 48 h ([2]; Run 1, 0.1 μg/ml CDDP): 2.798
Average SRB 72 h ([2]; Run 1, 0.1 μg/ml CDDP): 2.532
Average SRB 24 h ([2]; Run 1, 1 μg/ml CDDP): 1.294
Average SRB 48 h ([2]; Run 1, 1 μg/ml CDDP): 2.888
Average SRB 72 h ([2]; Run 1, 1 μg/ml CDDP): 2.483
Average SRB 24 h ([2]; Run 1, 10 μg/ml CDDP): 1.205
Average SRB 48 h ([2]; Run 1, 10 μg/ml CDDP): 2.893
Average SRB 72 h ([2]; Run 1, 10 μg/ml CDDP): 2.648
Average SRB 24 h ([2]; Run 1, 100 μg/ml CDDP): 1.2
Average SRB 48 h ([2]; Run 1, 100 μg/ml CDDP): 2.555
Average SRB 72 h ([2]; Run 1, 100 μg/ml CDDP): 2.649
Average SRB 24 h ([2]; Run 2, 0.1 μg/ml CDDP): 1.78
Average SRB 48 h ([2]; Run 2, 0.1 μg/ml CDDP): 1.681
Average SRB 72 h ([2]; Run 2, 0.1 μg/ml CDDP): 1.766
Average SRB 24 h ([2]; Run 2, 1 μg/ml CDDP): 1.495
Average SRB 48 h ([2]; Run 2, 1 μg/ml CDDP): 1.14
Average SRB 72 h ([2]; Run 2, 1 μg/ml CDDP): 1.396
Average SRB 24 h ([2]; Run 2, 10 μg/ml CDDP): 0.982
Average SRB 48 h ([2]; Run 2, 10 μg/ml CDDP): 1.077
Average SRB 72 h ([2]; Run 2, 10 μg/ml CDDP): 1.28
Average SRB 24 h ([2]; Run 2, 100 μg/ml CDDP): 0.985
Average SRB 48 h ([2]; Run 2, 100 μg/ml CDDP): 1.138
Average SRB 72 h ([2]; Run 2, 100 μg/ml CDDP): 1.25
SRB 24 h Average ([3]; Run 1, 0.1 μg/ml CDDP): 1.792
SRB 48 h Average ([3]; Run 1, 0.1 μg/ml CDDP): 2.678
SRB 72 h Average ([3]; Run 1, 0.1 μg/ml CDDP): 2.873
SRB 24 h Average ([3]; Run 1, 1 μg/ml CDDP): 1.395
SRB 48 h Average ([3]; Run 1, 1 μg/ml CDDP): 2.254
SRB 72 h Average ([3]; Run 1, 1 μg/ml CDDP): 2.928
SRB 24 h Average ([3]; Run 1, 10 μg/ml CDDP): 1.785
SRB 48 h Average ([3]; Run 1, 10 μg/ml CDDP): 2.489
SRB 72 h Average ([3]; Run 1, 10 μg/ml CDDP): 2.962
SRB 24 h Average ([3]; Run 1, 100 μg/ml CDDP): 1.752
SRB 48 h Average ([3]; Run 1, 100 μg/ml CDDP): 2.457
SRB 72 h Average ([3]; Run 1, 100 μg/ml CDDP): 2.852
SRB 24 h Average ([3]; Run 2, 0.1 μg/ml CDDP): 1.576
SRB 48 h Average ([3]; Run 2, 0.1 μg/ml CDDP): 1.83
SRB 72 h Average ([3]; Run 2, 0.1 μg/ml CDDP): 2.1
SRB 24 h Average ([3]; Run 2, 1 μg/ml CDDP): 1.27
SRB 48 h Average ([3]; Run 2, 1 μg/ml CDDP): 1.162
SRB 72 h Average ([3]; Run 2, 1 μg/ml CDDP): 0.883
SRB 24 h Average ([3]; Run 2, 10 μg/ml CDDP): 1.598
SRB 48 h Average ([3]; Run 2, 10 μg/ml CDDP): 1.867
SRB 72 h Average ([3]; Run 2, 10 μg/ml CDDP): 1.755
SRB 24 h Average ([3]; Run 2, 100 μg/ml CDDP): 1.509
SRB 48 h Average ([3]; Run 2, 100 μg/ml CDDP): 1.048
SRB 72 h Average ([3]; Run 2, 100 μg/ml CDDP): 1.004
SRB 24 h ([3]; 0.1 μg/ml CDDP): 2.643
SRB 48 h ([3]; 0.1 μg/ml CDDP): 2.742
SRB 72 h ([3]; 0.1 μg/ml CDDP): 2.87
SRB 24 h ([3]; 1 μg/ml CDDP): 1.382
SRB 48 h ([3]; 1 μg/ml CDDP): 1.537
SRB 72 h ([3]; 1 μg/ml CDDP): 2.07
SRB 24 h ([3]; 10 μg/ml CDDP): 2.134
SRB 48 h ([3]; 10 μg/ml CDDP): 2.364
SRB 72 h ([3]; 10 μg/ml CDDP): 2.593
SRB 24 h ([3]; 100 μg/ml CDDP): 1.141
SRB 48 h ([3]; 100 μg/ml CDDP): 1.464
SRB 72 h ([3]; 100 μg/ml CDDP): 1.493
